# Assay results reported in patent EP0173262A2, “Use of 1,4-naphthoquinone derivatives in a low concentration as immunostimulating agents” (Carnivora-Deutschland GmbH, priority 1984, dated 1986).
# Experiments:
# Granulozyten = test: Granulocyte test (modified after Brandt), phagocytosis of yeast particles; assay type: cell-based; conditions: concentration range 10^-1 bis 10^-2 mg/ml
# Text: (§1) Die vorliegende Erfindung beruht auf dem erstmaligen Nachweis einer Immunstimulation durch 1,4-Naphthochinon-Derivate der angegebenen Art. Die Immunstimulation läßt sich experimentell in vitro und in vivo klar nachweisen. Als geeignete immunologische Testverfahren dienen der Carbon Clearance-Test (CCT)-RES-Funktion (Biozzi, G. Benacerraf, B. und Halpern, B.N., Br. J. Exp.Pathol. 34, 441 (1953)); der Granulocyten-Test gemäß Brandt, L., Scand.J.Haematol. Suppl. 2 (1967), der vorzugsweise in modifizierter Form angewandt wird; sowie eine Chemoluminenszenz-Messung nach Allen (Allen, R.C. in "Bioluminescence and Chemiluminescence; Basic Chemistry and Analytical Applications", Eds: De Luca und Mc Elroy, S. 63-73, Academie Press, New York, 1981).
# In 20 ml Spritze 1 Tropfen Heparin (Thrombophob) und ca. 10 ml Blut abnehmen und mit 1,5% Dextran T 500 im Verhältnis 2:1 mischen. Kanüle auf der Spritz umbiegen und 30 Minuten bei 25°C absetzen lassen (ca. 2-3 ml Blut für Eigenserum abnehmen).
# Den Überstand (Leukozytensuspension) in steriles Röhrchen überspritzen; 7 Minuten bei 500 U. zentrifugieren.
# Überstand weggießen, Bodensatz (Leukozyten) 2 mal mit RPM I-Puffer bei 500 U. waschen.
# Granulozyten mit ca. 5 ml Puffer auffüllen und Zellen auf 5 x 10 x 10^6 einstellen. […] Zellsuspension in 0,475 ml 3 % iger Essigsäure mischen. In Neubauerkammer 4 Quadrate auszählen (100 Zellen/Kammer). […]
# [1] = test system: polymorphkernigen Leucocyten (PMNL); test: Chemiluminescence measurement (modified after Allen), zymosan-stimulated PMNL; assay type: cell-based; conditions: concentration range 10^-1 bis 10^-2 mg/ml
# Text: as §1
# • a) PBS-Puffer ohne Ca^2+ und Mg^2+ (steril) (Fa. Biochrom, Berlin) • b) Veronal-gepufferte Kochsalzlösung mit Ca^2+, Mg^2+, Glucose und Albumin Stammlösung: 8.3 g NaCl, 1.02 g Natrium, 5,5-Diäthylbarbiturat (Veronal), 102 mg MgCl2, 22 mgCaCl2 in 150 ml H2O (bidest.) lösen, + 3.5 ml 1M IICL auf 200 ml mit H20 (bidest.) auffüllen. Von dieser Stammlösung werden 40 ml mit 140 ml H20 (bidest.) verdünnt, mit 1M HCL auf pH 7.0 eingestellt und mit II20 (bidest.) auf 200 ml auf gefüllt. […]
compound,measurement,setting,value
CC1=CC(=O)c2c(O)cccc2C1=O [Plumbagin],effect on phagocytosis at higher concentrations,Granulozyten,ausgeprägte Phagocytosehemmung
same,effect at higher concentrations,[1],Phagocytosehemmung sowie eine Immunsuppression bzw. Cytotoxicität
